Data from patent US11230527B2, “Solid forms of 2-(5-(4-(2-morpholinoethoxy)phenyl)pyridin-2-yl)-n- benzylacetamide” (Athenex HK Innovative Limited, priority 2017, dated 2022).

How the values were obtained:
Assay type in all cases: physicochemical
[1] = HPLC chemical stability after storage at various conditions; settings: for Area Percent at 248 nm T1 week: 1 week; for Area Percent at 248 nm T2 week: 2 weeks; for Area Percent at 248 nm T4 week: 4 weeks; for Area Percent at 248 nm T8 week: 8 weeks
Protocol: High-performance Liquid Chromatography (HPLC) analysis was performed to determine the chemical stability of Forms A, B, and C of Compound A after storage at various conditions, using an Agilent 1100 system with DAD. Chemical stability was estimated by measuring and comparing the area percent of the material peak at various time points. For High-performance Liquid Chromatography (HPLC) analysis, an Agilent 1100 system with DAD was used.

[2] = XRPD physical form stability under storage conditions; settings: up to eight weeks
Protocol: XRPD analysis is carried out using a diffractometer running in reflection mode. The 2-theta position is calibrated against a standard before running the experiment. XRPD analysis was carried out on a Panalytical X'Pert^3 Powder XRPD on a Si zero-background holder, scanning the samples between 3 and 40° 2-theta. The 2-theta position was calibrated against Panalytical 640 Si powder standard. The test material was gently compressed on a glass disc inserted into a sample holder. The sample was then loaded into a Panalytical X'Pert^3 Powder XRPD diffractometer running in reflection mode and analyzed, using the following experimental conditions.

[3] = Dynamic Vapor Sorption (DVS)
Protocol: Dynamic Vapor Sorption (DVS) was measured using a SMS (Surface Measurement Systems) DVS Intrinsic. The test was performed at 25° C. while the RH was varied from 0% to 95% at 10% increments in the range of 0% RH-90% RH and at 5% increment up to 95% RH. The change in mass after each increase or decrease in the RH was recorded as a percentage of the original mass of the starting material. Dynamic Vapor Sorption (DVS) was measured using a SMS (Surface Measurement Systems) DVS Intrinsic, using the following parameters: [table]

Solubility estimation = settings: thermodynamic from solid
Protocol: Solubility of the solid forms of the present application in a variety of solvents is measured. Solvent is added to a sample until the total volume reaches 100 μL, followed by 100 μL per step until the sample is dissolved or the concentration is less than <1.0 mg/mL. The approximate solubility is then calculated.
Solubility of the solid forms of the present application in a variety of solvents was measured according to the following procedures. A sample (˜2 mg) was weighed into a 4-mL glass vial. Solvent was added into the vial stepwise at 50 μL per step until the total volume was 100 μL, followed by 100 μL per step until concentration was less than 1.0 mg/mL. The solutions were mixed thoroughly after each addition by sonication for 2 minutes and vortexing for 1 minute. The addition of solvent was complete if the sample was dissolved or the concentration was <1.0 mg/mL. The volumes of solvent (V1 and V2) were recorded, and approximate solubility was calculated.

[4] = XRPD after air-drying or vacuum drying
Protocol: XRPD analysis was carried out on a Panalytical X'Pert^3 Powder XRPD on a Si zero-background holder, scanning the samples between 3 and 40° 2-theta. The 2-theta position was calibrated against Panalytical 640 Si powder standard. The test material was gently compressed on a glass disc inserted into a sample holder. The sample was then loaded into a Panalytical X'Pert^3 Powder XRPD diffractometer running in reflection mode and analyzed, using the following experimental conditions.

## O=C(Cc1ccc(-c2ccc(OCCN3CCOCC3)cc2)cn1)NCc1ccccc1 [Form A, 2-(5-(4-(2-morpholinoethoxy)phenyl)pyridin-2-yl)-N-benzylacetamide]
[1]; 25° C./60% RH
  Area Percent at 248 nm T1 week: 99.8 Area Percent
  Area Percent at 248 nm T2 week: 99.8 Area Percent
  Area Percent at 248 nm T4 week: 99.8 Area Percent
  Area Percent at 248 nm T8 week: 99.8 Area Percent
  Area Percent at 248 nm T0: 99.8 Area Percent
[1]; 40° C./75% RH
  Area Percent at 248 nm T1 week: 99.8 Area Percent
  Area Percent at 248 nm T2 week: 99.8 Area Percent
  Area Percent at 248 nm T4 week: 99.8 Area Percent
  Area Percent at 248 nm T8 week: 99.8 Area Percent
  Area Percent at 248 nm T0: 99.8 Area Percent
[1]; 55° C./75% RH
  Area Percent at 248 nm T1 week: 99.8 Area Percent
  Area Percent at 248 nm T2 week: 99.8 Area Percent
  Area Percent at 248 nm T4 week: 99.7 Area Percent
  Area Percent at 248 nm T8 week: 99.8 Area Percent
  Area Percent at 248 nm T0: 99.8 Area Percent
[1]; Ambient
  Area Percent at 248 nm T1 week: 99.8 Area Percent
  Area Percent at 248 nm T2 week: 99.7 Area Percent
  Area Percent at 248 nm T4 week: 99.7 Area Percent
  Area Percent at 248 nm T8 week: 99.7 Area Percent
  Area Percent at 248 nm T0: 99.8 Area Percent
[1]; selected storage conditions, time points over eight-week study
  change in HPLC area percent purity (LCAP): no significant decrease
[2]; 25° C./60% RH
  change in physical form (XRPD): no change in physical form
[2]; 40° C./75% RH
  change in physical form (XRPD): no change in physical form
[2]; 55° C./75% RH
  change in physical form (XRPD): no change in physical form
[2]; ambient conditions
  change in physical form (XRPD): no change in physical form
[3]
  hygroscopicity: non-hygroscopic
[3]; 25° C. and RH up to 95%
  XRPD pattern after exposure to DVS experiment: does not change
[3]; between 0 and 80% RH at between 25° C. and 45° C.
  water uptake: less than 0.2 % w/w
Solubility estimation; aqueous
  solubility thermodynamic: < 1500 µg/mL
Solubility estimation; water, aqueous solution (e.g., water), room temperature, read-out: aqueous solubility (dissolved completely)
  solubility: > 20 mg/mL
[4]
  crystallinity after drying (XRPD): no loss of crystallinity
